These results are taken from paper PMC4207132 (Journal of Medicinal Chemistry, 2014).

SMILES strings stand for the structures.

The target in the experiment is pVHL:EloB:EloC (VBC) complex (Homo sapiens, UniProt P40337). The format is binding.
Chain of pVHL:EloB:EloC (VBC) complex (Q15369 17-112): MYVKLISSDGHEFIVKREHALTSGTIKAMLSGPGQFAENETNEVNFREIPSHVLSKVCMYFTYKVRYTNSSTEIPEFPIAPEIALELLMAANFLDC
Chain of pVHL:EloB:EloC (VBC) complex (P40337 54-213): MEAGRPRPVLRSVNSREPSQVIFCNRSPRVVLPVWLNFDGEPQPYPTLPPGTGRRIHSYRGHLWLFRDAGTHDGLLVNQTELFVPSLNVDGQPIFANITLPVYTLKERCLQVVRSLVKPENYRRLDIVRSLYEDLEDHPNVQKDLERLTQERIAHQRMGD
Chain of pVHL:EloB:EloC (VBC) complex (Q15370 1-104, further chain): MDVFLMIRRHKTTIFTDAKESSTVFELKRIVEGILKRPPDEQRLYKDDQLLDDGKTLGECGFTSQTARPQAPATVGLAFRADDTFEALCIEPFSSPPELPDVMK

On to `CC(=O)N[C@H](C(=O)N1C[C@H](O)C[C@H]1C(=O)NCc1ccc(-c2scnc2C)cc1)C(C)(C)C` [ligand 7, (2S,4R)-1-((S)-2-Acetamido-3,3-dimethylbutanoyl)-4-hydroxy-N-(4-(4-methylthiazol-5-yl)benzyl)pyrrolidine-2-carboxamide], for which the “increase in affinity compared to 5” value is about 20 fold.
